# Experimental data as given in PMC11357990, “A first-in-class selective inhibitor of EGFR and PI3K offers a single-molecule approach to targeting adaptive resistance” (Nature Cancer, 2024).
# How the values were obtained:
# [1] = molecular target: T1, CB1 (h) (agonist radioligand) (Homo sapiens, UniProt P21554); experiment: biochemical; details: read-out: Binding / ================================================= / % Inhibition of Control Specific Binding
# T1 construct: gene CNR1
# [2] = molecular target: T2, MC4 (h) (agonist radioligand) (Homo sapiens, UniProt P32245); experiment: biochemical; details: read-out: Binding / ================================================= / % Inhibition of Control Specific Binding
# T2 construct: gene MC4R
# [3] = molecular target: T3, alpha 1A (h) (antagonist radioligand) (Homo sapiens, UniProt P35348); experiment: biochemical; details: read-out: Binding / ================================================= / % Inhibition of Control Specific Binding
# T3 construct: gene ADRA1A
# [4] = molecular target: T4, MAO-A (antagonist radioligand) (Rattus norvegicus, UniProt P21396); experiment: biochemical; details: read-out: Binding / ================================================= / % Inhibition of Control Specific Binding
# T4 construct: gene Maoa
# [5] = molecular target: T5, 5-HT transporter (h) (antagonist radioligand) (Homo sapiens, UniProt P31645); experiment: biochemical; details: read-out: Binding / ================================================= / % Inhibition of Control Specific Binding
# T5 construct: gene SLC6A4
# [6] = molecular target: T6, V1a (h) (agonist radioligand) (Homo sapiens, UniProt P37288); experiment: biochemical; details: read-out: Binding / ================================================= / % Inhibition of Control Specific Binding
# T6 construct: gene AVPR1A
# [7] = molecular target: T7, H2 (h) (antagonist radioligand) (Homo sapiens, UniProt P25021); experiment: biochemical; details: read-out: Binding / ================================================= / % Inhibition of Control Specific Binding
# T7 construct: gene HRH2
# [8] = molecular target: CCR1 (h) (agonist radioligand) (Homo sapiens, UniProt P32246); experiment: biochemical; details: read-out: Binding / ================================================= / % Inhibition of Control Specific Binding
# [9] = molecular target: T8, M1 (h) (antagonist radioligand) (Homo sapiens, UniProt P11229); experiment: biochemical; details: read-out: Binding / ================================================= / % Inhibition of Control Specific Binding
# T8 construct: gene CHRM1
# [10] = molecular target: T9, dopamine transporter (h) (antagonist radioligand) (Homo sapiens, UniProt Q01959); experiment: biochemical; details: read-out: Binding / ================================================= / % Inhibition of Control Specific Binding
# T9 construct: gene SLC6A3
# [11] = molecular target: T10, D2S (h) (agonist radioligand) (Homo sapiens, UniProt P14416); experiment: biochemical; details: read-out: Binding / ================================================= / % Inhibition of Control Specific Binding
# T10 construct: gene DRD2
# [12] = molecular target: T11, D1 (h) (antagonist radioligand) (Homo sapiens, UniProt P21728); experiment: biochemical; details: read-out: Binding / ================================================= / % Inhibition of Control Specific Binding
# T11 construct: gene DRD1
# [13] = molecular target: T12, alpha 2B (h) (antagonist radioligand) (Homo sapiens, UniProt P18089); experiment: biochemical; details: read-out: Binding / ================================================= / % Inhibition of Control Specific Binding
# T12 construct: gene ADRA2B
# [14] = molecular target: T13, kappa (h) (KOP) (agonist radioligand) (Homo sapiens, UniProt P41145); experiment: biochemical; details: read-out: Binding / ================================================= / % Inhibition of Control Specific Binding
# T13 construct: gene OPRK1
# [15] = molecular target: T14, GABAB(1b) (h) (antagonist radioligand) (Homo sapiens, UniProt Q9UBS5); experiment: biochemical; details: read-out: Binding / ================================================= / % Inhibition of Control Specific Binding
# T14 construct: gene GABBR1
# [16] = molecular target: T15, PI3Kδ (Homo sapiens, UniProt O00329); experiment: biochemical kinase assay at ATP Km apparent
# T15 construct: gene PIK3CD
# T15 sequence (O00329 whole entry): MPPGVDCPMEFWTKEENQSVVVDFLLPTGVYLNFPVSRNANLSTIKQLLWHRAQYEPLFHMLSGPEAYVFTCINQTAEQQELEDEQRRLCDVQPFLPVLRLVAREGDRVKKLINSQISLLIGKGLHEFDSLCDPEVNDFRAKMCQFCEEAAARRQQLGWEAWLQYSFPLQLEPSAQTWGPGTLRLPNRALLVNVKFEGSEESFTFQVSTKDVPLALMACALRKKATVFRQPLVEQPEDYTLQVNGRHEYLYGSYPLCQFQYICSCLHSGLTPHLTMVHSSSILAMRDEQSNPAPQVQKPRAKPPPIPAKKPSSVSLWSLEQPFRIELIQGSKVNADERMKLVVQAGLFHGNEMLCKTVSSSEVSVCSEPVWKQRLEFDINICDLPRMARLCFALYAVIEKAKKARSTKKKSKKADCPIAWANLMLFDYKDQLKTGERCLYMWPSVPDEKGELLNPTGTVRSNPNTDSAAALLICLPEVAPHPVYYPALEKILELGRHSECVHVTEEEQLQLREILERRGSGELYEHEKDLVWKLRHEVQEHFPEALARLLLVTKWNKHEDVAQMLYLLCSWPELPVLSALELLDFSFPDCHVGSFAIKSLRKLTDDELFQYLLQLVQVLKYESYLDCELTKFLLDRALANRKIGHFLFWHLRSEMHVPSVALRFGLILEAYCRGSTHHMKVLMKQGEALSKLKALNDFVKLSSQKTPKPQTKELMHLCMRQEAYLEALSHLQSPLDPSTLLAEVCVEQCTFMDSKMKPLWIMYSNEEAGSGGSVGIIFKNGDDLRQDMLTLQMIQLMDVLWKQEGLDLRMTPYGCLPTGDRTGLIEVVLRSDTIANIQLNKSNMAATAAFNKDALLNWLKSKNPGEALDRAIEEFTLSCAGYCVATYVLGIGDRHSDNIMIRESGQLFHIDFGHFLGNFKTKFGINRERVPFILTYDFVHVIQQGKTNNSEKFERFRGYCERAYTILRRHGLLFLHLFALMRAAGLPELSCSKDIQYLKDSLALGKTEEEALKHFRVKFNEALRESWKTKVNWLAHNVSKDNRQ
# T6 sequence (P37288 whole entry): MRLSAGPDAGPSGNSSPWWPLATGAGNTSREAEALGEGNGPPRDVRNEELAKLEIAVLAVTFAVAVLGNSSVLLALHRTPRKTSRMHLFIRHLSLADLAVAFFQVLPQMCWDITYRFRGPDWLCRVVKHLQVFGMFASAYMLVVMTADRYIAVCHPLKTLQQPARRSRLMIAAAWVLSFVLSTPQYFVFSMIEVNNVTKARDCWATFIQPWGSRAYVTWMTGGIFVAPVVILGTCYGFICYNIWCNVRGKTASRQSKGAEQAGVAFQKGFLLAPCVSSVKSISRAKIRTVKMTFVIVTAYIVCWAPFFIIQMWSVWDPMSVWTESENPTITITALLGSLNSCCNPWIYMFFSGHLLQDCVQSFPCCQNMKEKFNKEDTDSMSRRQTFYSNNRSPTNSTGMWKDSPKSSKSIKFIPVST
# T13 sequence (P41145 whole entry): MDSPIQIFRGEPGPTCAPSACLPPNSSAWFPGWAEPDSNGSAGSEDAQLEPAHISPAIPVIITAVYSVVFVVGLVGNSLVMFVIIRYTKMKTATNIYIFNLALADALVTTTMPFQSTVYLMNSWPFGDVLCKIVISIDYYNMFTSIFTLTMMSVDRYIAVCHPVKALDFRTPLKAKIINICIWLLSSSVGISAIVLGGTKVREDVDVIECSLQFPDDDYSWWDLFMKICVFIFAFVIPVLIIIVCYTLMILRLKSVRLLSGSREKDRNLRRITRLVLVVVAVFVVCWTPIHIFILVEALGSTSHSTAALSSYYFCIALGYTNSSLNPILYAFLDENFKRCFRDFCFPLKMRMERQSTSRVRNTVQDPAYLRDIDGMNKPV
# T3 sequence (P35348 whole entry): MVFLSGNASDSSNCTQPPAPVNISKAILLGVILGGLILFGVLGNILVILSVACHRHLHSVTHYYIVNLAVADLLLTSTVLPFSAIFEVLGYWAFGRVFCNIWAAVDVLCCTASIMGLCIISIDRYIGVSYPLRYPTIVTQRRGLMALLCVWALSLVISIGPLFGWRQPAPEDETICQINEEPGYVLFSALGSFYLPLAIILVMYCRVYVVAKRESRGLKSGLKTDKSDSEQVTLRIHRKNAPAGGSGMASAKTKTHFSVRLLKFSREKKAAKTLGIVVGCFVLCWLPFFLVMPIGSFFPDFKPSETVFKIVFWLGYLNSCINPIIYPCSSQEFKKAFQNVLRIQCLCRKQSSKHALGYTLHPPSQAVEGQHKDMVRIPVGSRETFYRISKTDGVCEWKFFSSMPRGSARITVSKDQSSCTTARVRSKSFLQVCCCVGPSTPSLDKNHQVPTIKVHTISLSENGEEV
# T4 sequence (P21396 whole entry): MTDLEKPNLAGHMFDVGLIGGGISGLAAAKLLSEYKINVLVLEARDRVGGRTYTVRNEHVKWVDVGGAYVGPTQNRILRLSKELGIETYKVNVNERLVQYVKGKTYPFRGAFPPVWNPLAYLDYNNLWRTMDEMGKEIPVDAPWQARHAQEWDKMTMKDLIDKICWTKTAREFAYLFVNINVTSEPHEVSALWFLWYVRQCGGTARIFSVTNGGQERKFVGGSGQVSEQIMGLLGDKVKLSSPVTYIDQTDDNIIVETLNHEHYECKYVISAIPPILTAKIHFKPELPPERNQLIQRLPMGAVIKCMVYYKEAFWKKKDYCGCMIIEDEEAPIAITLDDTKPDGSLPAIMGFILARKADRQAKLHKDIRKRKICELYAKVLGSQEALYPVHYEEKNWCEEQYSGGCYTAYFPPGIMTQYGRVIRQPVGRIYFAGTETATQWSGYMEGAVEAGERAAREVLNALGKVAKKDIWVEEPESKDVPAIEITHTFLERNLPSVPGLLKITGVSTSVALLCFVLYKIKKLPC
# T9 sequence (Q01959 whole entry): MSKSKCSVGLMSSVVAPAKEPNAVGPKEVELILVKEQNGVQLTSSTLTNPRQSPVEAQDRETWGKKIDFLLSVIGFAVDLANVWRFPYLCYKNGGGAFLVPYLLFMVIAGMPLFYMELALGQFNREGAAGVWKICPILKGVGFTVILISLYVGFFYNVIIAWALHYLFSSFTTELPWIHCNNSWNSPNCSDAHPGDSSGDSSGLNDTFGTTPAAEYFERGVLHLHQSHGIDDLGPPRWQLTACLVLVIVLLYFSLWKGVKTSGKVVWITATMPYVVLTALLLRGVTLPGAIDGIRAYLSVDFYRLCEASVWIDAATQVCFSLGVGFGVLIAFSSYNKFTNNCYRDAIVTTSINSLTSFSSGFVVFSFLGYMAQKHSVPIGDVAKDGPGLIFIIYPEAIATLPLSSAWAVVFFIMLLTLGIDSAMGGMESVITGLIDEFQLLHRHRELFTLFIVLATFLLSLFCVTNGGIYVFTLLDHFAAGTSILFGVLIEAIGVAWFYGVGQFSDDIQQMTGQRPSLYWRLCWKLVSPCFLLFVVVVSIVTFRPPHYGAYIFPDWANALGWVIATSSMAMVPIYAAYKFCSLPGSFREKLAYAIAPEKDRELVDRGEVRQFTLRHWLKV
# T5 sequence (P31645 whole entry): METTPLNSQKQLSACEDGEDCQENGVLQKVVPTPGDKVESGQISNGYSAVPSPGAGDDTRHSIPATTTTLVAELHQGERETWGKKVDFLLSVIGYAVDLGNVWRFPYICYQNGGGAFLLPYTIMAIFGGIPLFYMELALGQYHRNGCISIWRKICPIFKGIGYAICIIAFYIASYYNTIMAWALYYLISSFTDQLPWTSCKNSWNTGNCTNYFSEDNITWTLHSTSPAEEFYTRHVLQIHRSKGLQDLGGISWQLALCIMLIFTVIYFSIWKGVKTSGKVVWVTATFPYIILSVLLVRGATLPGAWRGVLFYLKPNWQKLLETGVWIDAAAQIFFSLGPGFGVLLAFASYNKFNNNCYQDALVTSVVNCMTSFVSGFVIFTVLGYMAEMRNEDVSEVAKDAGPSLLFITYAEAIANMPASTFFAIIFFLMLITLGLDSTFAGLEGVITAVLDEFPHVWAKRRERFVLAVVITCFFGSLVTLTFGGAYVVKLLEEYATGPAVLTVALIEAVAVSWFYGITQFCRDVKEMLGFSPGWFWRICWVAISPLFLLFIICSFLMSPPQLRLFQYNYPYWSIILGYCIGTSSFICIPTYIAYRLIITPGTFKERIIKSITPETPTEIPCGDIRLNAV
# T2 sequence (P32245 whole entry): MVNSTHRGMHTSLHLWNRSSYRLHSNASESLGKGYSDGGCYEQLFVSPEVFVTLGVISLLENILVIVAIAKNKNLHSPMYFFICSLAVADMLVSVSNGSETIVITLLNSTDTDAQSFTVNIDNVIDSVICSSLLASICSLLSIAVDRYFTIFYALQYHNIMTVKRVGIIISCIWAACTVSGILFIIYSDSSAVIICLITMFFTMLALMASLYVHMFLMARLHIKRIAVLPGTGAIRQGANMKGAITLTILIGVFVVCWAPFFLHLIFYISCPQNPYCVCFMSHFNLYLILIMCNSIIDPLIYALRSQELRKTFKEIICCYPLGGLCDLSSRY
# T11 sequence (P21728 whole entry): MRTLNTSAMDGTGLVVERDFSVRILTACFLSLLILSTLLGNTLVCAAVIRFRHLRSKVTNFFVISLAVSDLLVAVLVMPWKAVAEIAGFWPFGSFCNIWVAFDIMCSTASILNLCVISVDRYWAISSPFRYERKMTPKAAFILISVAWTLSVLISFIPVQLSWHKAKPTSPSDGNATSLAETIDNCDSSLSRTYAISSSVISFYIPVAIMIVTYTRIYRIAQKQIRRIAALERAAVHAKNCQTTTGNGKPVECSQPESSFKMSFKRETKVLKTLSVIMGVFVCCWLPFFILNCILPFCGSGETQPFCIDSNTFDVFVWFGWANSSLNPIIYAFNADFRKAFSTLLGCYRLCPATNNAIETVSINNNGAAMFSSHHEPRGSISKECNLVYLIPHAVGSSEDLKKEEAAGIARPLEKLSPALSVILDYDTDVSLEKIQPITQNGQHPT
smiles,measurement,setting,value
"C[C@@H](Nc1ncnc2ccc(-c3cnc(Cl)c(NS(C)(=O)=O)c3)cc12)c1ccccc1 [MTX-531, (R)-N-(2-chloro-5-(4-((1-phenylethyl)amino)quinazolin-6-yl)pyridin-3-yl)methane-sulfonamide]",inhibition at 10 µM,[1],-2%
same,inhibition at 10 µM,[2],1%
same,inhibition at 10 µM,[3],9%
same,inhibition at 10 µM,[4],8%
same,inhibition at 10 µM,[5],-1%
same,inhibition at 10 µM,[6],2%
same,inhibition at 10 µM,[7],-1%
same,inhibition at 10 µM,[8],0%
same,inhibition at 10 µM,[9],22%
same,inhibition at 10 µM,[10],12%
same,inhibition at 10 µM,[11],-4%
same,inhibition at 10 µM,[12],2%
same,inhibition at 10 µM,[13],2%
same,inhibition at 10 µM,[14],7%
same,inhibition at 10 µM,[15],-3%
same,IC50,[16],1.1 nM
